Laboratory results as given in the NIST ThermoML archive (doi:10.1021/acs.jced.7b00396).

Conditions: for viscosity: Capillary tube (Ostwald / Ubbelohde) method; for mass density: 700 kPa, Gamma attenuation method

CCCCCCCC [octane]
5100 kPa, Liquid
Conditions | viscosity [mPa·s]
303.2 K | 0.5014
353.1 K | 0.3078
403.2 K | 0.207
453.1 K | 0.1465
503 K | 0.1049
553.4 K | 0.0692

C1C[C@@H]2[C@H]3CC[C@H](C3)[C@@H]2C1 [exo-tetrahydrodicyclopentadiene]
Conditions | mass density [kg/m3]
239.8 K, Liquid | 965.9
266.2 K, Liquid | 955.9
290.9 K, Liquid | 945.8
307 K, Liquid | 936.3
337.1 K, Liquid | 917.3
368.4 K, Liquid | 890
391.9 K, Liquid | 877.6
428.7 K, Liquid | 857.3
468.5 K, Liquid | 818.7
483.8 K, Liquid | 779.5
510 K, Liquid | 759.3
532.4 K, Liquid | 737.7
562.1 K, Liquid | 646.3
603.4 K, Gas | 25.5
651.6 K, Gas | 22.9
682.7 K, Gas | 29.4
730.2 K, Gas | 19.5
744.7 K, Gas | 19.7
771.9 K, Gas | 26.4
803.3 K, Gas | 24.4
833 K, Gas | 25.4
873.3 K, Gas | 24.4

Conditions | viscosity [mPa·s]
242.7 K, 690 kPa, Liquid | 10.69
242.7 K, 1700 kPa, Liquid | 10.73
242.7 K, 3000 kPa, Liquid | 10.8
242.7 K, 6000 kPa, Liquid | 10.82
262.4 K, 690 kPa, Liquid | 5.78
262.4 K, 1700 kPa, Liquid | 5.82
262.5 K, 3000 kPa, Liquid | 5.828
262.5 K, 6000 kPa, Liquid | 5.888
303.1 K, 3000 kPa, Liquid | 2.49
303.1 K, 6000 kPa, Liquid | 2.498
303.2 K, 690 kPa, Liquid | 2.479
303.2 K, 1700 kPa, Liquid | 2.483
313.1 K, 690 kPa, Liquid | 1.996
313.2 K, 1700 kPa, Liquid | 2.026
313.2 K, 3000 kPa, Liquid | 2.146
313.2 K, 6000 kPa, Liquid | 2.186
333.1 K, 3000 kPa, Liquid | 1.709
333.1 K, 6000 kPa, Liquid | 1.758
333.2 K, 690 kPa, Liquid | 1.68
333.2 K, 1700 kPa, Liquid | 1.701
353.1 K, 690 kPa, Liquid | 1.142
353.1 K, 3000 kPa, Liquid | 1.234
353.1 K, 6000 kPa, Liquid | 1.268
353.2 K, 1700 kPa, Liquid | 1.165
373.1 K, 690 kPa, Liquid | 0.8868
373.1 K, 1700 kPa, Liquid | 0.9068
373.2 K, 3000 kPa, Liquid | 0.9467
373.2 K, 6000 kPa, Liquid | 0.9789
393 K, 3000 kPa, Liquid | 0.7365
393.1 K, 1700 kPa, Liquid | 0.7265
393.2 K, 690 kPa, Liquid | 0.7065
393.4 K, 6000 kPa, Liquid | 0.7661
412.9 K, 3000 kPa, Liquid | 0.5811
413.1 K, 1700 kPa, Liquid | 0.5518
413.1 K, 6000 kPa, Liquid | 0.6028
413.2 K, 690 kPa, Liquid | 0.5267
433.1 K, 1700 kPa, Liquid | 0.4372
433.1 K, 3000 kPa, Liquid | 0.4776
433.2 K, 690 kPa, Liquid | 0.4172
433.2 K, 6000 kPa, Liquid | 0.4992
453.1 K, 690 kPa, Liquid | 0.3605
453.1 K, 1700 kPa, Liquid | 0.4005
453.1 K, 6000 kPa, Liquid | 0.4321
453.2 K, 3000 kPa, Liquid | 0.3903
473.1 K, 6000 kPa, Liquid | 0.3675
473.2 K, 690 kPa, Liquid | 0.3123
473.2 K, 1700 kPa, Liquid | 0.3003
473.2 K, 3000 kPa, Liquid | 0.3204
493.1 K, 6000 kPa, Liquid | 0.3055
493.2 K, 690 kPa, Liquid | 0.2255
493.2 K, 1700 kPa, Liquid | 0.2552
493.2 K, 3000 kPa, Liquid | 0.2752
513.1 K, 6000 kPa, Liquid | 0.2964
513.2 K, 690 kPa, Liquid | 0.2054
513.2 K, 1700 kPa, Liquid | 0.2204
513.2 K, 3000 kPa, Liquid | 0.2264
533.2 K, 690 kPa, Liquid | 0.1602
533.2 K, 1700 kPa, Liquid | 0.1809
533.4 K, 3000 kPa, Liquid | 0.1837
533.4 K, 6000 kPa, Liquid | 0.2139
552.9 K, 690 kPa, Liquid | 0.1309
552.9 K, 1700 kPa, Liquid | 0.1509
553.3 K, 6000 kPa, Liquid | 0.1899
553.5 K, 3000 kPa, Liquid | 0.1502
573.3 K, 6000 kPa, Liquid | 0.1554
573.4 K, 690 kPa, Gas | 0.0304
573.4 K, 1700 kPa, Liquid | 0.1254
573.4 K, 3000 kPa, Liquid | 0.1354
593.2 K, 690 kPa, Gas | 0.0324
593.2 K, 1700 kPa, Gas | 0.0394
593.2 K, 6000 kPa, Liquid | 0.1453
593.3 K, 3000 kPa, Gas | 0.1154
613 K, 3000 kPa, Gas | 0.1016
613.4 K, 6000 kPa, Liquid | 0.1316
613.6 K, 690 kPa, Gas | 0.0288
613.6 K, 1700 kPa, Gas | 0.0389
633.3 K, 3000 kPa, Gas | 0.0977
633.3 K, 6000 kPa, Liquid | 0.1177
633.4 K, 690 kPa, Gas | 0.0338
633.4 K, 1700 kPa, Gas | 0.0371
653.3 K, 690 kPa, Gas | 0.0277
653.3 K, 1700 kPa, Gas | 0.0328
653.4 K, 3000 kPa, Gas | 0.0898
653.5 K, 6000 kPa, Liquid | 0.0991
672.3 K, 3000 kPa, Gas | 0.0804
673.2 K, 6000 kPa, Liquid | 0.0956
673.3 K, 690 kPa, Gas | 0.0265
673.3 K, 1700 kPa, Gas | 0.0302
692.5 K, 690 kPa, Gas | 0.0311
692.5 K, 1700 kPa, Gas | 0.0321
692.5 K, 3000 kPa, Gas | 0.0768
692.5 K, 6000 kPa, Liquid | 0.0927
713.8 K, 690 kPa, Gas | 0.0276
713.8 K, 1700 kPa, Gas | 0.0294
713.8 K, 3000 kPa, Gas | 0.0689
713.8 K, 6000 kPa, Gas | 0.0889
734 K, 690 kPa, Gas | 0.0303
734 K, 1700 kPa, Gas | 0.0324
734 K, 3000 kPa, Gas | 0.0645
734 K, 6000 kPa, Gas | 0.0844
753.3 K, 690 kPa, Gas | 0.0324
753.3 K, 1700 kPa, Gas | 0.0352
753.3 K, 3000 kPa, Gas | 0.0628
753.3 K, 6000 kPa, Gas | 0.0828
